Reference: patent publication US20220280644A1, “"TRPswitch" - A STEP FUNCTION CHEMO-OPTOGENETIC LIGAND” (UNIVERSITY OF UTAH RESEARCH FOUNDATION, priority 2019, published 2022)

What was measured:
[1] = tested on: wild-type zebrafish larvae; assay: Behavioral assay: light-induced motion response of wild-type larvae; type: in vivo, Zebrafish (Danio rerio); details: DABCO, singlet oxygen quencher
Experimental: A total of 1,000 compounds were selected from the ChemBridge Corp. catalog. Compounds were dissolved in DMSO at a stock concentration of 1 μg/μL (˜1.5 mM). The library was screened at a 1:100 dilution in E3 solution for a final concentration of ˜15 μM. Negative controls were treated with an equal volume of DMSO. Groups of 3 larvae at 3 days post fertilization (dpf) were distributed into the wells of 96-well clear bottom black microplates (07-200-567; Fisher Scientific) in 150 μL E3 before the addition of small molecules. Stock solutions of compounds were added directly to zebrafish in the wells of a 96 well plate (Corning 3631), mixed, and allowed to incubate for 1 h in the dark at 28.5° C. prior to behavioral evaluation in the behavioral assay. Ordering information: 1 (5533696; ChemBridge); 3 (5538408; ChemBridge).
Larvae in each of the wells were exposed to four 1 second flashes of light stimulus in the following order: 450-500 nm (WL1), 415-455 nm (WL2), 352-402 nm (WL3), white light (WL4), with a 5 second inter-stimulus interval. Digital video recording was performed for 5 seconds before the first light stimuli and continued throughout the stimulation sequence. Band pass filters (Semrock FF02-475/50, FF02-435/40, FF01-377/50) were used to restrict the excitation light to the indicated wavelengths. […] 290 frames of digital video were recorded per well at 10 FPS using an EMCCD camera (C9100; Hamamatsu) mounted on an inverted compound microscope (AxioObserver A1; Zeiss) with a NA 0.03 1.25× objective and a barrier with a 0.7 mm diameter opening to restrict light scattering to the sample. MetaMorph software (Molecular Devices) was used to control the execution of TTL signals and camera capture using the built-in stream acquisition with trigger function. Each video was saved for review. Light stimuli were generated with an ozone free 300-Watt xenon bulb housed in a Lambda LS illuminator (Sutter Instruments). A dichroic mirror (T510LPXRXT; Chroma) was used for appropriate excitation of samples and bright field acquisition. Schott longpass absorption glass (RG610; Chroma) was added in the transmitted light path to reduce unwanted excitation to the well and to provide sufficient light for video recording. All behavioral experiments were conducted at room temperature. […]
To analyze digital video recordings, custom MetaMorph software scripts were used to automatically threshold the video to identify the area of larvae in each frame. Threshold images of the frames after each light activation event were overlaid to calculate a new combined threshold area. The motion index was calculated as the percentage change between the threshold area in the frame right before light activation and the new combined threshold area. This motion index correlates with the overall amount of motion in the well.

Trpa1b mutant larvae = details: previously identified; cited from earlier work
[2] = tested on: wild-type zebrafish larvae; details: reference [23]; cited from earlier work

Cc1cc(/C=C2/SC(=S)NC2=O)c(C)n1-c1cccnc1 [optovin]
effect of DABCO on light-induced motion response [1]: abolished | activity in Trpa1b mutant zebrafish (Trpa1b mutant larvae): abolished | suppression of response by DABCO [2]: completely suppress
